Among the data in patent publication US5733880A, “Anthracene derivatives for use as anticancer agents” (Napier University Ventures Limited, priority 1993, dated 1998) are IC50 and maximum dose values, retold here.

In one series the test system is K562. Kind of series: In vitro chemosensitivity, microtetrazolium (MTT) assay, K562. Format: cell-based. Particulars: K562 human chronic myelogenous leukaemia, concentration reducing growth rate by 50% of untreated control. As to the method: (§1) The cytotoxic properties of selected examples were evaluated against a panel of established human tumour cell lines.
(§2) K562--a human chronic myelogenous leukaemia (Lozzio and Lozzio, 1975). HRT--18--a human primary adenocarcinoma from the human rectum (Tompkins et al, 1974).
(§3) Chemosensitivity in vitro was assessed using the microtetrazolium assay (MTT assay) (Twentyman & Luscombe, 1987).
(§4) Examples were soluble in 5% ethanol/saline. To each well, 20 μl of drug solution was added to give a final drug concentration of 0.1-100 μg/ml at four log increments. Solvent controls were used throughout, and the first row of each plate contained media plus drug in the absence of any cells. Each point is the result of three separate experiments and cytotoxic effects are expressed in terms of percent survival, taking the optical density of the control plates to represent 100% survival.
(§5) IC50 values are the average concentrations of drug required to reduce the growth rate by 50% of the untreated control system.

Another series has as its system HCLO. Kind of series: In vitro chemosensitivity, microtetrazolium (MTT) assay, HCLO. Particulars: concentration reducing growth rate by 50% of untreated control. It counts as cell-based, human. As to the method: as §1
(§6) HT-29 primary adenocarcinomas of the human colon.
as §3, §4, §5

For another series, the system named is HRT-18. Kind of series: In vitro chemosensitivity, microtetrazolium (MTT) assay, HRT-18. It counts as cell-based. Particulars: HRT-18 human rectum adenocarcinoma, concentration reducing growth rate by 50% of untreated control. As to the method: as §1, §2, §3, §4, §5
Another series concerns HT-29. Put plainly: In vitro chemosensitivity, microtetrazolium (MTT) assay, HT-29. Format: cell-based. Particulars: HT-29 human colon adenocarcinoma, concentration reducing growth rate by 50% of untreated control. As to the method:
as §1, §6, §3, §4, §5

The next series has as its system DLD-1. Put plainly: In vitro chemosensitivity, microtetrazolium (MTT) assay, DLD-1. It counts as cell-based. Particulars: DLD-1 human colon adenocarcinoma, concentration reducing growth rate by 50% of untreated control. As to the method: as §1, §6, §3, §4, §5
In a further series the test system is rodents. Particulars: in rodents; cited from earlier work.
The next series has as its system man. Particulars: in man; cited from earlier work.

For `N[C@@H](Cc1ccc(O)cc1)C(=O)NCCCNc1cccc2c1C(=O)c1ccccc1C2=O` [Example 15, 1-[3-(L-tyrosinylaminopropyl)amino]-anthracene-9,10-dione], the IC50 – broadly, the midpoint of a concentration-inhibition curve – amounted to 14.2 µM with K562; 6.7 µM with HCLO; 3 µM in the series on HRT-18; 0.6 µM with HT-29; 2.1 µM in the series on DLD-1.
The corresponding values for `CC(C)(C)OC(=O)N[C@H](Cc1ccccc1)C(=O)NCCCNc1cccc2c1C(=O)c1ccccc1C2=O` [Example 18, 1-[(3-N-tertiarybutoxycarbonyl-D-phenylalanylamino-propyl)amino]-anthracene-9,10-dione] are 19.8 µM, 17.4 µM, 7.7 µM, 2.5 µM and 13.2 µM.
Turning to `N[C@H](Cc1ccccc1)C(=O)NCCCCNc1cccc2c1C(=O)c1ccccc1C2=O` [Example 20, 1-[(4-D-phenylalanylaminobutyl)amino]-anthracene-9,10-dione], the IC50 worked out at 22.8 µM with K562; 21.4 µM in the series with HCLO (Homo sapiens); 16.8 µM with HRT-18; 14.2 µM with HT-29; 8.6 µM in the series with DLD-1.
As to `CSCC[C@H](N)C(=O)NCCCNc1cccc2c1C(=O)c1ccccc1C2=O` [Example 12], the IC50 with K562 is 17.2 µM; in the series on HCLO, 11.8 µM; in the series with HRT-18, 10.4 µM; in the series with HT-29, 7.8 µM; in the series with DLD-1, 4.1 µM.
For `COc1cccc2c1C(=O)c1c(O)c3c(c(O)c1C2=O)C[C@@](O)(C(=O)CO)C[C@@H]3O[C@H]1C[C@H](N)[C@H](O)[C@H](C)O1` [doxorubicin], the maximum dose was 5 mg/kg in the series on rodents and 1 to 2 mg/kg in the series on man.
